The source of these data is patent publication US20110178053A1, “AZACARBOLINE DERIVATIVES, PREPARATION METHOD THEREOF AND THERAPEUTIC USE OF SAME” (SANOFI-AVENTIS, priority 2008, published 2011).

What all share (format): biochemical
The target in one assay is T1, Pim-1 (Homo sapiens, UniProt P11309).
T1 construct: His6-labelled recombinant full-length human Pim-1, Pim-2 or Pim-3 protein; His6; made in house
In words: TR-FRET assay, Pim-1 kinase (phosphorylation of Bad Ser112). The settings on record: TR-FRET; ATP 40 μM; read-out: IC50 Pim1. How it is done:
(§1) In order to determine the inhibition of activation of Pim kinases, the compounds of the invention are tested in accordance with a routinely used in vitro TR-FRET assay (Time-Resolved Fluorescence Resonance Energy Transfer). […] For the assay, the following reagents are used:
(§2) Pim kinase—His6-labelled recombinant full-length human Pim-1, Pim-2 or Pim-3 protein (prepared according to J. Mol. Biol. (2005) 348, 183-193); Bad—His6-labelled recombinant full-length human Bad protein (prepared according to J. Mol. Biol. (2005) 348, 183-193); α-His6-APC—murine monoclonal antibody conjugated to allophycocyanin SureLight™ directed against the His6 label (Perkin-Elmer, No. AD0059H, Waltham, Mass., United States); • β-P˜Bad-Eu—murine monoclonal antibody (Cell Signaling Technology #9296B, Danvers, Mass., United States) directed against phosphoBad (Ser112) (7E11) custom-labelled by Perkin-Elmer with the reagent LANCE™ Eu-W1024.
(§3) The assay is based on Perkin-Elmer's LANCE™ technology: the Eu-labelled antibody binds to phospho-Ser112 and generates a TR-FRET signal by interaction with the APC-labelled antibody directed against His6, bound to the His6 label of Bad. The TR-FRET signal is detected using a SpectraMax M5 plate reader (Molecular Devices) with the following settings: λex=340 nm, λem1=615 nm, λem2=665 nm. The ratio of the fluorescence signal at 665 nm to the fluorescence signal at 615 nm is used as the signal reading for the IC50 (calculation is based on the 4-parameter logistic model). The assay is performed in a 384-well format; the liquid manipulations are performed using a Beckman 3000 liquid manipulations station. The test compounds are tested at 10 concentration points in duplicate; the highest compound concentration is typically equal to 30 μM. The ATP concentration is equal to 40 μM, which is equivalent to the apparent KM value.
A general note: TR-FRET usually uses a lanthanide donor and a delayed reading to cut background.

Another assay has as its target T2, Pim-2 (Homo sapiens, UniProt Q9P1W9).
T2 construct: His6-labelled recombinant full-length human Pim-1, Pim-2 or Pim-3 protein; His6; made in house
The assay can be described thus: TR-FRET assay, Pim-2 kinase (phosphorylation of Bad Ser112). Conditions: TR-FRET; ATP 40 μM; read-out: IC50 Pim2. The method, then:
as §1, §2, §3

For the next assay, the target named is T3, Pim-3 (Homo sapiens, UniProt Q86V86).
T3 construct: His6-labelled recombinant full-length human Pim-1, Pim-2 or Pim-3 protein; His6; made in house
The assay can be described thus: TR-FRET assay, Pim-3 kinase (phosphorylation of Bad Ser112). The settings on record: TR-FRET; ATP 40 μM; read-out: IC50 Pim3. How it is done: as §1, §2, §3

T2 sequence (Q9P1W9 whole entry): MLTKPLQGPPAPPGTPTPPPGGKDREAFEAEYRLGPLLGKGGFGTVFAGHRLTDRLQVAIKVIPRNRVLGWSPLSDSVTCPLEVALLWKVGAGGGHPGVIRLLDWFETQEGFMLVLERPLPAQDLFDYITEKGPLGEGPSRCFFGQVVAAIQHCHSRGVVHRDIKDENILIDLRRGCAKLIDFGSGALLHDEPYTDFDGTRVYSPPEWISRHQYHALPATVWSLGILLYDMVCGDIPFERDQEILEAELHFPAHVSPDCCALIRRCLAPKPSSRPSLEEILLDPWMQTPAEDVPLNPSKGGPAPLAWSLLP
T1 sequence (P11309 whole entry): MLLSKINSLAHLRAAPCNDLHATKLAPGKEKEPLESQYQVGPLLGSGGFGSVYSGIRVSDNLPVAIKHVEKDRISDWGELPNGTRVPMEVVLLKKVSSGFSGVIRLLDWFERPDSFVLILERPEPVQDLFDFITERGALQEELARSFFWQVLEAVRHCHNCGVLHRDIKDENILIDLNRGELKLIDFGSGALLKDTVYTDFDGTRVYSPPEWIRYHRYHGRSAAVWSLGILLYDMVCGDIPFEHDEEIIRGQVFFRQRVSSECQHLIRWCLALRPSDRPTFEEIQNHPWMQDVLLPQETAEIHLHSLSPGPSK

As for `CC(C)(O)c1cnc2[nH]c3cnc(-c4cccnc4)cc3c2c1` [Example 16, 2-[6-(pyrid-3-yl)-9H-pyrrolo[2,3-b:5,4-c′]dipyrid-3-yl]propan-2-ol], the IC50 (as a rule, the concentration at which inhibition is half-maximal) at Pim-1 was in the range of 1000 to 5000 nM; on Pim-2 it was 1000 to 5000 nM; on Pim-3, 100 to 1000 nM.
As to `OCc1cnc2[nH]c3cnc(-c4cccnc4)cc3c2c1` [Example 17, [6-(pyrid-3-yl)-9H-pyrrolo[2,3-b:5,4-c′]dipyrid-3-yl]methanol], the IC50 at Pim-1 was 100 to 1000 nM; on Pim-2, over 5000 nM; at Pim-3, 100 to 1000 nM.
In the case of `CC(C)COC(=O)c1cnc2[nH]c3cnc(-c4cccnc4)cc3c2c1` [Example 18, 2-methylpropyl 6-(pyrid-3-yl)-9H-pyrrolo[2,3-b:5,4-c′]dipyridine-3-carboxylate], the 50% inhibitory concentration (IC50) was 1 to 100 nM at Pim-1, over 5000 nM on Pim-2 and 100 to 1000 nM on Pim-3.
For `Fc1cnc2[nH]c3cnc(-c4cccnc4)cc3c2c1/C=C/c1ccccc1` [Example 24, 3-fluoro-4-[(E)-2-phenylethenyl]-6-(pyrid-3-yl)-9H-pyrrolo[2,3-b:5,4-c′]dipyridine], the results for the 50% inhibitory concentration (IC50) at Pim-1, on Pim-2 and at Pim-3 were 100 to 1000 nM, over 5000 nM and 1000 to 5000 nM, respectively.
In the case of `Fc1cc(F)cc(-c2c(F)cnc3[nH]c4cnc(-c5cccnc5)cc4c23)c1` [Example 25, 4-(3,5-difluorophenyl)-3-fluoro-6-(pyrid-3-yl)-9H-pyrrolo [2,3-b:5,4-c′]-dipyridine], the IC50 on Pim-1 is 1 to 100 nM; at Pim-2 it was over 5000 nM; at Pim-3, 100 to 1000 nM.
The like results for `CCOC(=O)/C=C/c1c(F)cnc2[nH]c3cnc(-c4cccnc4)cc3c12` [Example 29, ethyl (2E)-3-[3-fluoro-6-(pyrid-3-yl)-9H-pyrrolo-[2,3-b:5,4-c′]dipyrid-4-yl]prop-2-enoate] were, in that order, 100 to 1000 nM, over 5000 nM and 100 to 1000 nM.
The like results for `OCC(O)CCc1c(F)cnc2[nH]c3cnc(-c4cccnc4)cc3c12` (stereo not drawn) [Example 30, 4-(3-fluoro-6-(pyrid-3-yl)-9H-pyrrolo[2,3-b:5,4-c′]dipyrid-4-yl]butane-1,2-diol] were, in that order, 1 to 100 nM, 1000 to 5000 nM and 100 to 1000 nM.
On to `Fc1cnc2[nH]c3cnc(-c4cccnc4)cc3c2c1-c1cccc(N2CCOCC2)c1` [Example 31, 3-fluoro-4-[3-(morpholin-4-yl)phenyl]-6-(pyrid-3-yl)-9H-pyrrolo [2,3-b:5,4-c′]dipyridine], for which the IC50 on Pim-1 is 100 to 1000 nM; on Pim-2, over 5000 nM; at Pim-3, 1000 to 5000 nM.
Consider `CN(C(=O)c1c(F)cnc2[nH]c3cnc(-c4cccnc4)cc3c12)c1ccccc1` [Example 35, 3-fluoro-N-methyl-N-phenyl-6-(pyrid-3-yl)-9H-pyrrolo[2,3-b:5,4-c′]-dipyridine-4-carboxamide], for which the IC50 is 100 to 1000 nM on Pim-1, over 5000 nM on Pim-2 and 1000 to 5000 nM on Pim-3.
On to `Fc1cnc2[nH]c3cnc(-c4cccnc4)cc3c2c1Cl` [Example 37, 4-chloro-3-fluoro-6-(pyrid-3-yl)-9H-pyrrolo[2,3-b:5,4-c′]dipyridine], for which the 50% inhibitory concentration (IC50) at Pim-1 was 100 to 1000 nM; on Pim-2, over 5000 nM; on Pim-3, 1000 to 5000 nM.
In the case of `Cc1c(F)cnc2[nH]c3cnc(-c4cccnc4)cc3c12` [Example 38, 4-methyl-3-fluoro-6-(pyrid-3-yl)-9H-pyrrolo[2,3-b:5,4-c′]dipyridine], the IC50 on Pim-1 was 100 to 1000 nM; at Pim-2 it was over 5000 nM; on Pim-3 it was 100 to 1000 nM.
As for `Fc1ccc(-c2cc3c(cn2)[nH]c2ncccc23)cn1` [Example 41, 6-(6-fluoropyrid-3-yl)-9H-pyrrolo[2,3-b:5,4-c′]dipyridine], the results for the IC50 on Pim-1, at Pim-2 and at Pim-3 were 1000 to 5000 nM, over 5000 nM and over 5000 nM, respectively.
For the compound `O=S(=O)(Nc1ccc(-c2c(F)cnc3[nH]c4cnc(-c5cccnc5)cc4c23)cc1)C1CC1` [Example 46, N-{4-[3-fluoro-6-(pyrid-3-yl)-9H-pyrrolo[2,3-b:5,4-c′]dipyrid-4-yl]phenyl}cyclo-propanesulfonamide], the IC50 at Pim-1 lay within 1 to 100 nM; at Pim-2, 100 to 1000 nM; on Pim-3 it was 1 to 100 nM.
As for `COc1ccc(-c2c(F)cnc3[nH]c4cnc(-c5cccnc5)cc4c23)cn1` [Example 52, 3-fluoro-4-(6-methoxypyrid-3-yl)-6-(pyrid-3-yl)-9H-pyrrolo[2,3-b:5,4-c′]-dipyridine], the IC50 was 100 to 1000 nM at Pim-1, over 5000 nM at Pim-2 and 100 to 1000 nM on Pim-3.
Consider `CS(=O)(=O)Nc1cccc(-c2c(F)cnc3[nH]c4cnc(-c5cccnc5)cc4c23)c1` [Example 53, N-{3-[3-fluoro-6-(pyrid-3-yl)-9H-pyrrolo[2,3-b:5,4-c′]-dipyrid-4-yl]phenyl}-methanesulfonamide], for which the IC50 was 1 to 100 nM on Pim-1, 1000 to 5000 nM at Pim-2 and 100 to 1000 nM on Pim-3.
For `Cc1csc(-c2c(F)cnc3[nH]c4cnc(-c5cccnc5)cc4c23)c1` [Example 54, 3-fluoro-4-(4-methylthiophen-2-yl)-6-(pyrid-3-yl)-9H-pyrrolo[2,3-b:5,4-c′]dipyridine], the IC50 was 1 to 100 nM on Pim-1, over 5000 nM on Pim-2 and 100 to 1000 nM on Pim-3.
For the compound `Fc1cnc2[nH]c3cnc(-c4cccnc4)cc3c2c1-c1ccc2cc[nH]c2c1` [Example 55], the IC50 at Pim-1 fell in the range of 1 to 100 nM; at Pim-2, 1000 to 5000 nM; at Pim-3 it was 100 to 1000 nM.
Take `Cc1cscc1-c1c(F)cnc2[nH]c3cnc(-c4cccnc4)cc3c12` [Example 57, 3-fluoro-4-(4-methyl-thiophen-3-yl)-6-(pyrid-3-yl)-9H-pyrrolo[2,3-b:5,4-c′]-dipyridine]: the IC50 at Pim-1 is 1000 to 5000 nM; on Pim-2, 1000 to 5000 nM; on Pim-3, 100 to 1000 nM.
As to `CN(C)c1cccc(-c2c(F)cnc3[nH]c4cnc(-c5cccnc5)cc4c23)c1` [Example 58, 3-[3-fluoro-6-(pyrid-3-yl)-9H-pyrrolo[2,3-b:5,4-c′]dipyrid-4-yl]-N,N-dimethylaniline], the IC50 was 1000 to 5000 nM at Pim-1, over 5000 nM on Pim-2 and 1000 to 5000 nM at Pim-3.
With `Cn1ccc2cc(-c3c(F)cnc4[nH]c5cnc(-c6cccnc6)cc5c34)ccc21` [Example 59, 3-fluoro-4-(1-methyl-1H-indol-5-yl)-6-(pyrid-3-yl)-9H-pyrrolo[2,3-b:5,4-c′]-dipyridine], the 50% inhibitory concentration (IC50) on Pim-1 is 1 to 100 nM; at Pim-2, over 5000 nM; at Pim-3, 100 to 1000 nM.
`Cn1cc(-c2c(F)cnc3[nH]c4cnc(-c5cccnc5)cc4c23)cn1` [Example 60, 3-fluoro-4-(1-methyl-1H-pyrazol-4-yl)-6-(pyrid-3-yl)-9H-pyrrolo[2,3-b:5,4-c′]-dipyridine]: the values for the IC50 at Pim-1, at Pim-2 and on Pim-3 were 1 to 100 nM, 1000 to 5000 nM and 100 to 1000 nM, respectively.
Consider `CC(=O)NCc1ccc(-c2c(F)cnc3[nH]c4cnc(-c5cccnc5)cc4c23)cc1` [Example 61, N-{4-[3-fluoro-6-(pyrid-3-yl)-9H-pyrrolo[2,3-b:5,4-c′]-dipyrid-4-y]benzyl}-acetamide], for which the IC50 at Pim-1 was 1 to 100 nM; on Pim-2, 1000 to 5000 nM; at Pim-3, 1 to 100 nM.
